US20090221690A1, “Pharmaceutical Composition for the Prevention/Treatment of Bone Disorders and a Process for the Preparation Thereof” (COUNCIL OF SCIENTIFIC AND INDUSTRIAL RESEARCH, priority 2006, published 2009)

System: osteoblasts
Assay: Osteogenic activity of isolated compounds based on alkaline phosphatase expression, MTT and mineralisation in vitro
Format: cell-based
Details: not given
Description: K051, K052, K054, K080, K082 (isolated from n-butanol soluble fraction) and K095 (isolated from chloroform soluble fraction) (FIGS. 11-15; Tables 10-11).

Row | SMILES | osteogenic activity
1 | COc1ccc(-c2coc3cc(O)ccc3c2=O)cc1 [Compound K080, 7-hydroxy, 4′-methoxy-isoflavone] | promising osteogenic activity
2 | COc1ccc(-c2c(C)oc3cc(O)ccc3c2=O)cc1 [Compound K082, 2-methyl, 7-hydroxy, 4′-methoxy isoflavone] | promising osteogenic activity

System: osteoblasts
Assay: Quantification of alkaline phosphatase activity in osteoblasts
Format: cell-based, Balb/c mouse
Set-up: alkaline phosphatase activity: unit not given here
Details: 10^−5 M; 48 h; Control 1.87 ± 0.20; Mean±SEM
Protocol: (§1) Neonatal mouse calvarial cell cultures are prepared as described previously (Endocrinology 139:4743) using slight modification. Briefly, for primary osteoblast cell cultures, frontal and parietal bones from Balb/c mouse neonates (1-3 day old) are digested in 0.1% collagenase/0.1% dispase in α-MEM to obtain 5 sequential digests. The second through fifth digests are combined and grown to confluence at 37° C. and 5% CO2 in air in α-MEM, supplemented with 10% fetal bovine serum (FBS), 2 mM glutamine, 100 U/ml penicillin-streptomycin, Non-essential amino acid solution and sodium pyruvate. The effect of test agents is analysed using the following tests:
p-Nitrophenol phosphate is a colorless substrate which is hydrolysed to colored p-nitrophenol by alkaline phosphatase enzyme. Rate of hydrolysis of p-nitrophenol phosphate is proportional to enzyme present in sample. […] Findings reveal that all the five pure compounds nos.

Row | SMILES | alkaline phosphatase activity
3 | COc1ccc(-c2coc3cc(O)ccc3c2=O)cc1 [Compound K080, 7-hydroxy, 4′-methoxy-isoflavone] | 3.45 ± 0.06

Same assay, conditions: 10^−6 M; 48 h; Control 1.87 ± 0.20; Mean±SEM

Row | SMILES | alkaline phosphatase activity
4 | COc1ccc(-c2coc3cc(O)ccc3c2=O)cc1 [Compound K080, 7-hydroxy, 4′-methoxy-isoflavone] | 3.40 ± 0.02

Same assay, conditions: 10^−7 M; 48 h; Control 1.87 ± 0.20; Mean±SEM

Row | SMILES | alkaline phosphatase activity
5 | COc1ccc(-c2coc3cc(O)ccc3c2=O)cc1 [Compound K080, 7-hydroxy, 4′-methoxy-isoflavone] | 3.46 ± 0.06

Same assay, conditions: 10^−8 M; 48 h; Control 1.87 ± 0.20; Mean±SEM

Row | SMILES | alkaline phosphatase activity
6 | COc1ccc(-c2coc3cc(O)ccc3c2=O)cc1 [Compound K080, 7-hydroxy, 4′-methoxy-isoflavone] | 3.30 ± 0.01

Same assay, conditions: 10^−9 M; 48 h; Control 1.87 ± 0.20; Mean±SEM

Row | SMILES | alkaline phosphatase activity
7 | COc1ccc(-c2coc3cc(O)ccc3c2=O)cc1 [Compound K080, 7-hydroxy, 4′-methoxy-isoflavone] | 3.33 ± 0.02

Same assay, conditions: 10^−10 M; 48 h; Control 1.87 ± 0.20; Mean±SEM

Row | SMILES | alkaline phosphatase activity
8 | COc1ccc(-c2coc3cc(O)ccc3c2=O)cc1 [Compound K080, 7-hydroxy, 4′-methoxy-isoflavone] | 3.27 ± 0.08

Same assay, conditions: 10^−11 M to 10^−5 M; 48 h

Row | SMILES | expression of alkaline phosphatase vs vehicle control
9 | COc1ccc(-c2coc3cc(O)ccc3c2=O)cc1 [Compound K080, 7-hydroxy, 4′-methoxy-isoflavone] | increased expression of alkaline phosphatase

Same assay, conditions: 10^−11 M; 48 h; Control 1.87 ± 0.20; Mean±SEM

Row | SMILES | alkaline phosphatase activity
10 | COc1ccc(-c2coc3cc(O)ccc3c2=O)cc1 [Compound K080, 7-hydroxy, 4′-methoxy-isoflavone] | 3.38 ± 0.02

System: osteoblasts cultured on sterile bovine bone slices
Assay: Mineralisation by osteoblasts cultured on bovine bone slices, Alizarin red staining
Format: cell-based, Balb/c mouse
Details: osteoblasts on bovine bone slices, 15 days; alone or in combination; FIGS. 14 and 15
Protocol: as §1
(§2) Cells are seeded onto sterile bovine bone slices in 96-well plate and treated with the culture medium containing α-MEM, supplemented with 10% fetal bovine serum, 2 mM glutamine, 100 U/ml penicillin-streptomycin, non-essential amino acid solution, sodium pyruvate, 10 mM P-glycerophosphate and 50 μg/ml ascorbic acid. Culture medium is changed every alternate day. At termination of the culture, cells are washed twice with PBS, fixed in cold 70% ethanol for 1 h and washed once with water and stained with 40 mM Alizarin red (pH 4.7) for 30 min and then washed in PBS to remove excess staining.
as §2, with “In case of osteoblasts” for “Cells are”, “slices, the cells are cultured” for “slices”, “in A-MEM” for “and treated with the culture medium containing α-MEM,”, “p-glycerophosphate” for “P-glycerophosphate”, “acid in the absence or presence of test compounds or their mixtures.” for “acid.”, “culture after 15 days,” for “culture,”

Row | SMILES | intensity of alizarin red staining (rate of new bone formation)
11 | COc1ccc(-c2coc3cc(O)ccc3c2=O)cc1 [Compound K080, 7-hydroxy, 4′-methoxy-isoflavone] | increased intensity of alizarin red staining
12 | COc1ccc(-c2c(C)oc3cc(O)ccc3c2=O)cc1 [Compound K082, 2-methyl, 7-hydroxy, 4′-methoxy isoflavone] | increased intensity of alizarin red staining

System: MCF-7 (human cancer breast) cell line
Assay: MTT proliferation assay in MCF-7 cell line
Format: cell-based
Details: 10 nM and 1 μM; MCF-7 cells; FIG. 2

Row | SMILES | proliferation
13 | O=C(c1ccc(OCCN2CCCCC2)cc1)c1c(-c2ccc(O)cc2)sc2cc(O)ccc12 [Raloxifene] | increased proliferation was observed in only the Ishikawa cell line

System: primary osteoblasts
Assay: MTT assay for cell proliferation, primary osteoblast cell culture
Format: cell-based, Balb/c mouse
Details: 10^−5 M; 24 h; Vehicle 0.60 ± 0.06; Mean±SEM
Protocol: as §1
MTT assay is a common assay used for assessing cell proliferation where tetrazolium salt is reduced to formazone crystals by the mitochondrial dehydrogenase enzyme, which are then dissolved in DMSO. More the number of metabolically active cells more will be the formazone crystals formed. Briefly, osteoblast cells are maintained in α-MEM medium supplemented with 10% FCS and 1% antibiotic solution in 96 well plate. When the cells attain 40% confluency, they are treated in presence or absence of test agents in 2% FCS supplemented media for 24 h. Twenty-four hours thereafter, MTT salt is added to the cells. After 4 h, the formazone crystals formed are dissolved in DMSO and readings taken at wavelength of 570 nm.
This assay is based on the ability of viable cells to reduce tetrazolium salt to form formazone crystals by mitochondrial dehydrogenase enzyme. In MTT assay, osteoblasts are maintained in α-MEM medium supplemented with 10% FCS and 1% antibiotic solution in 96 well plate. When the cells attain 40% confluency, they are treated in presence or absence of test agents in 2% FCS supplemented media for 24 h. Twenty-four hours thereafter, MTT salt is added to the cells. After 4 h, the formazone crystals formed due to reduction of tetrazolium salt by mitochondrial dehydrogenase enzyme are dissolved in DMSO and readings taken at wavelength of 570 nm. All the five pure compounds nos.

Row | SMILES | Osteoblast cell proliferation (MTT assay)
14 | COc1ccc(-c2coc3cc(O)ccc3c2=O)cc1 [Compound K080, 7-hydroxy, 4′-methoxy-isoflavone] | 1.49 ± 0.03

Same assay, conditions: 10^−6 M; 24 h; Vehicle 0.60 ± 0.06; Mean±SEM

Row | SMILES | Osteoblast cell proliferation (MTT assay)
15 | COc1ccc(-c2coc3cc(O)ccc3c2=O)cc1 [Compound K080, 7-hydroxy, 4′-methoxy-isoflavone] | 1.55 ± 0.05

Same assay, conditions: 10^−7 M; 24 h; Vehicle 0.60 ± 0.06; Mean±SEM

Row | SMILES | Osteoblast cell proliferation (MTT assay)
16 | COc1ccc(-c2coc3cc(O)ccc3c2=O)cc1 [Compound K080, 7-hydroxy, 4′-methoxy-isoflavone] | 1.43 ± 0.09

Same assay, conditions: 10^−8 M; 24 h; Vehicle 0.60 ± 0.06; Mean±SEM

Row | SMILES | Osteoblast cell proliferation (MTT assay)
17 | COc1ccc(-c2coc3cc(O)ccc3c2=O)cc1 [Compound K080, 7-hydroxy, 4′-methoxy-isoflavone] | 1.47 ± 0.02

Same assay, conditions: 10^−9 M; 24 h; Vehicle 0.60 ± 0.06; Mean±SEM

Row | SMILES | Osteoblast cell proliferation (MTT assay)
18 | COc1ccc(-c2coc3cc(O)ccc3c2=O)cc1 [Compound K080, 7-hydroxy, 4′-methoxy-isoflavone] | 1.58 ± 0.09

Same assay, conditions: 10^−10 M; 24 h; Vehicle 0.60 ± 0.06; Mean±SEM

Row | SMILES | Osteoblast cell proliferation (MTT assay)
19 | COc1ccc(-c2coc3cc(O)ccc3c2=O)cc1 [Compound K080, 7-hydroxy, 4′-methoxy-isoflavone] | 1.35 ± 0.03

Same assay, conditions: 10^−11 M to 10^−5 M; 24 h

Row | SMILES | osteoblast cell proliferation vs vehicle control
20 | COc1ccc(-c2coc3cc(O)ccc3c2=O)cc1 [Compound K080, 7-hydroxy, 4′-methoxy-isoflavone] | enhanced osteoblast cell proliferation

Same assay, conditions: 10^−11 M; 24 h; Vehicle 0.60 ± 0.06; Mean±SEM

Row | SMILES | Osteoblast cell proliferation (MTT assay)
21 | COc1ccc(-c2coc3cc(O)ccc3c2=O)cc1 [Compound K080, 7-hydroxy, 4′-methoxy-isoflavone] | 1.25 ± 0.09

System: rat fetal bones
Assay: Total alkaline phosphatase activity in cultured rat fetal bones
Format: cell-based
Set-up: dose or concentration left out as unconfirmed
Details: rat fetal bones cultured for 48 h
Protocol: […] The homogenate is centrifuged at 5000 rpm for 10 min at 4° C. The supernatant is used as the enzyme solution. The activity of alkaline phosphatase is measured using ALP kit (Roche, Germany) and p-nitrophenol phosphate as substrate.

Row | SMILES | Total alkaline phosphatase activity, percent increase (percent of vehicle control group) [%]
22 | O=P([O-])([O-])OC(CO)CO.[Na+].[Na+] [Sodium β-glycerophosphate] | 28

Same assay, conditions: rat fetal bones cultured for 48 h; listed as sodium p-glycerophosphate

Row | SMILES | Total alkaline phosphatase activity, percent increase (percent of vehicle control group) [%]
23 | O=P([O-])([O-])OC(CO)CO.[Na+].[Na+] [Sodium β-glycerophosphate] | 28

System: Ishikawa (human uterine glandular epithelial carcinoma) cell line
Assay: MTT proliferation assay in Ishikawa cell line
Format: cell-based
Details: 10 nM and 1 μM; Ishikawa cells; FIG. 2

Row | SMILES | proliferation
24 | O=C(c1ccc(OCCN2CCCCC2)cc1)c1c(-c2ccc(O)cc2)sc2cc(O)ccc12 [Raloxifene] | increased proliferation was observed

System: osteoblast cells
Assay: Quantification of mineralization in osteoblasts (Alizarin red, acetic acid extraction)
Format: cell-based, Balb/c mouse
Details: osteoblasts cultured 7 days; vs vehicle control; FIG. 13
Protocol: as §1
For quantification of mineralization which is measured with increased deposition of nascent calcium in osteoblast cells, cells were cultured in the presence of test compounds for 7 days and stained with Alizarin red. Alizarin red was extracted with acetic acid and the intensity of stain, which is directly proportion to the extent of mineralisation, is read at 405 nm.

Row | SMILES | mineralisation quantified by alizarin extraction method
25 | COc1ccc(-c2coc3cc(O)ccc3c2=O)cc1 [Compound K080, 7-hydroxy, 4′-methoxy-isoflavone] | enhanced mineralisation
26 | COc1ccc(-c2c(C)oc3cc(O)ccc3c2=O)cc1 [Compound K082, 2-methyl, 7-hydroxy, 4′-methoxy isoflavone] | enhanced mineralisation
